Measurements taken from PubChem BioAssay (NCI).
Values joined by “and” are separate entries in the source; they are usually repeats but may differ in a detail not shown here. Equal entries are not always repeated.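 Five compound concentrations were applied to cells in 96-well plates for 48 hours; endpoints were derived by simple linear interpolation of the resulting dose-response curve. At the GI50, growth is halved. TGI marks complete inhibition of growth.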

Columns and labels:
Test in all cases: NCI tumour cell line growth inhibition, 48 h
LXFL 529 NSCLC = tested on: LXFL 529 NSCLC
HOP-18 NSCLC = tested on: HOP-18 NSCLC
KM20L2 colon = tested on: KM20L2 colon
DMS 273 small cell lung = tested on: DMS 273 small cell lung
SNB-78 CNS = tested on: SNB-78 CNS
DLD-1 colon = tested on: DLD-1 colon
DMS 114 small cell lung = tested on: DMS 114 small cell lung
M19-MEL melanoma = tested on: M19-MEL melanoma
RXF-631 renal = tested on: RXF-631 renal
P388/ADR leukemia = tested on: P388/ADR leukemia
P388 leukemia = tested on: P388 leukemia

SMILES	TGI (LXFL 529 NSCLC) [µM]	TGI (HOP-18 NSCLC)	TGI (KM20L2 colon)	TGI (DMS 273 small cell lung) [µM]	TGI (SNB-78 CNS)	TGI (DLD-1 colon)	TGI (DMS 114 small cell lung)	TGI (M19-MEL melanoma)	TGI (RXF-631 renal) [µM]	GI50 (P388/ADR leukemia) [µM]	TGI (P388/ADR leukemia) [µM]	GI50 (P388 leukemia) [µM]	TGI (P388 leukemia)	GI50 (HOP-18 NSCLC) [µM]	GI50 (KM20L2 colon) [µM]	GI50 (DMS 273 small cell lung) [µM]	GI50 (SNB-78 CNS) [µM]	GI50 (DLD-1 colon) [µM]	GI50 (DMS 114 small cell lung)	GI50 (M19-MEL melanoma) [µM]
O=C1c2ccccc2C(=O)c2c(O)c(NCCNCCO)cc(O)c21	18.1	18.8 µM	16.1 µM	12	18.7 µM	11.1 µM	16.1 µM	15.2 µM	–	–	–	–	–	–	–	–	–	–	–	–
CCCc1cc(-c2ccc(-c3cc(CCC)c(C=O)[nH]3)s2)[nH]c1C=O	> 100	> 100 µM	–	> 100	> 100 µM	> 100 µM	65 µM	> 100 µM	–	–	–	–	–	–	–	–	–	–	–	–
CN(C)Cc1[nH]c2ccccc2c1C(=O)c1ccccc1	> 100	–	> 100 µM	> 100	–	> 100 µM	–	–	–	–	–	–	–	–	–	–	–	–	–	–
COc1ccc(C2C(Cl)C(=O)N2NC(=O)c2ccccc2O)cc1OC (stereo unspecified)	–	–	–	> 100	> 100 µM	> 100 µM	> 100 µM	> 100 µM	–	–	–	–	–	–	–	–	–	–	–	–
CC(=O)C1=NN(c2ccccc2)C2(S1)SC(c1ccccc1)(c1ccccc1)c1ccccc12 (stereo unspecified)	> 100	> 100 µM	> 100 µM	73.6	> 100 µM	> 100 µM	> 100 µM	> 100 µM	–	–	–	–	–	–	–	–	–	–	–	–
O=C(O)CN=c1c2ccccc2n(O)c2ccccc12	> 100	> 100 µM	> 100 µM	> 100	> 100 µM	> 100 µM	> 100 µM	> 100 µM	> 100	–	–	–	–	–	–	–	–	–	–	–
CC(=O)O/N=C/c1cc2c(cc1Br)OCO2	> 349	–	> 349 µM	> 349	–	> 349 µM	> 349 µM	> 349 µM	–	–	–	–	–	–	–	–	–	–	–	–
Cc1ccc(F)c2c(=O)cc(-c3ccccc3)[nH]c12	> 100	> 100 µM	–	> 100	–	> 100 µM	> 100 µM	> 100 µM	–	–	–	–	–	–	–	–	–	–	–	–
CC#Cc1c(C#CC)c(OC)c2c(c1OC)C(=O)c1ccccc1C2=O	> 100	–	> 100 µM	> 100	–	> 100 µM	89 µM	> 100 µM	–	–	–	–	–	–	–	–	–	–	–	–
CC1(C)N=C(Oc2ccccc2)n2nccc2N1	> 100	> 100 µM	> 100 µM	> 100	–	> 100 µM	> 100 µM	> 100 µM	–	–	–	–	–	–	–	–	–	–	–	–
CCN(CC)CCC(=O)O[C@H]1CC[C@H](CC(C)[C@H]2CC(=O)C(C)C=C(C)[C@H](OC(=O)CCN(CC)CC)C(OC)C(=O)[C@@H](C)CC(C)/C=C/C=C/C=C(C)C(OC)CC3CC[C@H](C)[C@](O)(O3)C(=O)C(=O)N3CCCCC3C(=O)O2)CC1OC (stereo partly specified)	1.74	3.35 µM	> 4.99 µM	2.32	1.7 µM	2.62 µM	1.54 µM	–	–	–	–	–	–	–	–	–	–	–	–	–
Cc1cc(C)nc(NS(=O)(=O)c2ccc(NC(=O)c3cccc4c(N)c5ccccc5nc34)cc2)n1	> 100	–	> 100 µM	> 100	> 100 µM	> 100 µM	> 100 µM	> 100 µM	–	–	–	–	–	–	–	–	–	–	–	–
CCCOP(=S)(N1CC1)N1CC1	–	> 100 µM	> 100 µM	> 100	> 100 µM	> 100 µM	> 100 µM	> 100 µM	–	–	–	–	–	–	–	–	–	–	–	–
Cc1cc(Cl)ccc1NC(=O)C(=O)Cc1occc(=O)c1O	> 100	> 100 µM	> 100 µM	> 100	> 100 µM	> 100 µM	> 100 µM	> 100 µM	> 100	–	–	–	–	–	–	–	–	–	–	–
C(=N/NC1=NCCN1)/c1c2ccccc2c(/C=N\NC2=NCCN2)c2ccccc12	–	0.888 µM and 1.5 µM	2.16 µM and 1.22 µM	–	3.83 µM and 9.8 µM	27.9 µM and 250 µM	0.603 µM and 0.421 µM	0.355 µM and 0.258 µM	–	86.6	116	0.0561	0.571 µM and 1.08 µM	0.282	0.0553	0.0504	0.368	1.32	0.0491 µM and 0.0606 µM	0.0605
Cc1nc2nn(C)cc2c(=O)n1/N=C/c1ccccc1	–	> 100 µM	> 100 µM	> 100	> 100 µM	> 100 µM	> 100 µM	> 100 µM	–	–	–	–	–	–	–	–	–	–	–	–
COc1ccc(/C=C(\Cl)c2ccc(OC)cc2)cc1	> 100	–	> 100 µM	> 100	–	> 100 µM	> 100 µM	> 100 µM	–	–	–	–	–	–	–	–	–	–	–	–
CN(CCO)/N=N/c1nc[nH]c1C(N)=O	> 100	–	> 100 µM	> 100	> 100 µM	> 100 µM	> 100 µM	> 100 µM	–	–	–	–	–	–	–	–	–	–	–	–
COc1nc(OC)nc(Sc2ccc(Sc3ccc(Sc4nc(OC)nc(OC)n4)cc3)cc2)n1	> 100	> 100 µM	> 100 µM	> 100	> 100 µM	> 100 µM	> 100 µM	> 100 µM	–	–	–	–	–	–	–	–	–	–	–	–
O=C1Cc2ccccc2CCc2ccsc21	> 100	> 100 µM	> 100 µM	> 100	> 100 µM	> 100 µM	–	> 100 µM	–	–	–	–	–	–	–	–	–	–	–	–
Cc1ccccc1NC(=O)CSc1nnc(Cc2ccccc2)o1	> 100	> 100 µM	> 100 µM	> 100	> 100 µM	> 100 µM	> 100 µM	> 100 µM	–	–	–	–	–	–	–	–	–	–	–	–
